According to US20180071284A1, “PREVENTING OR TREATING VIRAL INFECTION BY INHIBITION OF THE HISTONE METHYLTRANSFERASE EZH1 OR EZH2” (The United States of America, as represented by the …, priority 2015, published 2018):
Entries after “also recorded” stand apart in the source; their conditions may differ.

Key:
Format in all cases: cell-based, herpes simplex virus 1 (HSV-1)
[1] = test system: HSV-1; assay: UL29+ single neurons and neuron clusters in explanted trigeminal ganglia; conditions: explant 48-hrs; compound 1 35 μM, compound 4 30 μM, ACV 100 μM, ML324 50 μM
Excerpt: (§1) Trigeminal ganglia were fixed in paraformaldehyde and tissue sections were contained with anti-UL29 and DAPI. The HSV E gene UL29 (DNA single strand binding replication protein) was used a marker for viral reactivation. Tissue sections were scored for UL29+ cell clusters (clusters indicate viral spread from the primary neuron to surrounding cells) and for individual neurons representing the primary reactivation event (single) (FIGS. 18 and 19).
as §1, with “costained” for “contained”, “(FIG. 25).” for “(FIGS. 18 and 19).”

[2] = test system: HSV-1; assay: HSV-1 cellular and nuclear entry (viral DNA in total and nuclear fractions of HFF cells); conditions: compound 1 35 μM, compound 4 30 μM, 5-hrs pretreatment, HSV-1 2.0 PFU per cell 1.5-hrs
Method: HFF cells were treated with the EZH1/2 catalytic inhibitor compound 1 (35 μM), compound 4 (30 μM), or DMSO (vehicle) for 5-hrs. The HFF cells were then infected with HSV-1 (2.0 PFU per cell) for 1.5-hrs in the presence of the inhibitors or DMSO (vehicle). The levels of HSV viral DNA isolated from total and nuclear cellular fractions are expressed as ratios relative to DMSO (vehicle).

[3] = test system: HSV-1; assay: Spread of HSV infection in HFF cells (UL29 staining); conditions: HSV-1 MOI 0.01 for 8.5-hrs, then treated for 12.5-hrs (30 μM)
Method: HFF cells were mock or infected with HSV-1 (MOI 0.01) for 8.5-hrs to allow one round of the viral replication program. The HFF cells were then treated with EZH1/2 inhibitor (compound 1 or compound 4 at 30 μM), viral DNA polymerase inhibitor (ACV at 100 μM), or JMJD3 inhibitor (ML324 at 50 μM) for an additional 12.5-hrs. Cells were paraformaldehyde fixed, permeabilized, and stained for the viral E gene UL29 and actin. The viral E protein UL29 was used as a marker for the spread of viral infection.
HFF cells were mock or infected with HSV-1 (MOI 0.01) for 8.5-hrs to allow one round of the viral replication program. HFF cells were then treated with EZH1/2 (compound 1, compound 4), viral DNA polymerase (ACV), or JMJD3 (ML324) inhibitors for additional 12.5-hrs. Cells were paraformaldehyde fixed, permeabilized, and stained for the viral E gene UL29 and actin (Phalloidin). The viral E protein UL29 was used as a marker for the spread of viral infection.

[4] = test system: HSV-1; assay: HSV-1 viral IE mRNA levels in infected Vero (IFN-β null, IRF3 deficient) cells; conditions: 5-hrs pretreatment, HSV-1 2.0 PFU per cell
Method: HFF (wild-type) and Vero (IFN-β null, IRF3 deficient) cells were treated with the indicated concentration of EZH1/2 catalytic inhibitor (compound 1 or 4) or DMSO (vehicle) for 5-hrs. HFF and Vero cells were then infected with HSV-1 (2.0 PFU per cell) for 1.5-hrs in the presence of inhibitor or DMSO. The levels of HSV viral IE (ICP0, ICP4, ICP22, and ICP27) and cellular control (SP1 and TBP) mRNAs are expressed relative to cells treated with DMSO (vehicle).

[5] = test system: HSV-1; assay: Mouse trigeminal ganglia explant reactivation model, viral yield titrated on Vero cells; conditions: explant 48-hrs; compound 1 35 μM, compound 3 30 μM, compound 4 30 μM
Method: Trigeminal ganglia from HSV-1 latently infected mice were bisected. Half were explanted in media with control DMSO (vehicle), and the other half were explanted in media with ACV (100 μM), ML324 (50 μM), compound 1 (35 μM), compound 3 (30 μM), or compound 4 (30 μM) for 48-hrs to induce viral reactivation. Viral yields were determined by titrating on Vero cells. Each point represents the titer of one explanted trigeminal ganglia.

[6] = test system: HSV-1; assay: Removal of inhibitors prior to HSV-1 infection of HFF cells (mRNA levels); conditions: washed, then infected; for HSV IE expression after removal of compound prior to infection: 5-hrs treatment (compound 1 35 μM, 2 15 μM, 3 30 μM, 4 30 μM); for IL6 stimulation after removal of compound prior to infection: 5-hrs treatment
Method: HFF cells were treated with inhibitors targeting the catalytic SET domain (compound 1, 35 μM: EZH2; compound 2, 15 μM: EZH2 and EZH1; compound 4, 30 μM: EZH2), EED-EZH2 and EED-EZH1 (compound 3, 30 μM), or DMSO (control) for 5-hrs. Cells were then washed with phosphate buffered saline (PBS) and replaced with media with no inhibitors for the indicated time in FIGS. 21-24 prior to infection with HSV-1 (2.0 PFU per cell) for 1.5-hrs in the absence of inhibitors.

Structure (SMILES) | primary reactivation (UL29+ single neurons) [1] | secondary spread of HSV (UL29+ neuron clusters) [1] | HSV-1 viral entry (total and nuclear) [2] | spread of HSV infection to adjacent cells (UL29 marker) [3] | antiviral activity (HSV IE mRNA) in Vero cells as compared to HFF (wild-type) cells [4] | HSV reactivation from latency (viral yield per explanted trigeminal ganglia) [5] | HSV IE expression after removal of compound prior to infection [6] | IL6 stimulation after removal of compound prior to infection [6]
Nc1nc2c(ncn2COCCO)c(=O)[nH]1 [ACV, Acyclovir] | reduced | – | – | – | – | – | – | –
CN(C)CCCNC(=O)c1ccc(-c2cc(O)c3ncccc3c2)cc1 [ML324, N-(3-(dimethylamino)propyl)-4-(8-hydroxyquinolin-6-yl)benzamide] | reduced | reduced | – | – | – | – | – | –
CCCc1cc(C)[nH]c(=O)c1CNC(=O)c1cc(-c2ccnc(N3CCN(C)CC3)c2)cc2c1cnn2C(C)C [compound 1, GSK343] | reduced | reduced | no impact | block the spread of HSV to adjacent cells; also recorded: block the spread of HSV infection | lack of antiviral activity | block HSV reactivation from latency | recovery of HSV IE expression | decrease in IL6 stimulation
CCCc1cc(C)[nH]c(=O)c1CNC(=O)c1cc(-c2ccc(N3CCN(C(C)C)CC3)nc2)cc2c1cnn2C(C)C [compound 2, UNC1999] | – | – | – | – | – | – | recovery of HSV IE expression | decrease in IL6 stimulation
COc1ccc(CCN2CCC(Nc3nc4ccccc4n3Cc3ccc(F)cc3)CC2)cc1 [compound 3, astemizole] | – | – | – | – | – | block HSV reactivation from latency | recovery of HSV IE expression | –
